Legend:
histamine H3 receptor [1] = target: T1, histamine H3 receptor (Homo sapiens, UniProt Q9Y5N1); assay: Histamine H3 functional antagonist assay (method B), [35S]-GTPγS SPA on membranes; type: biochemical; details: membrane from cultured H3 cells, histamine at EC80, averages of a number of experiments, read-out: functional pKi (fpKi), histamine H3 functional antagonist assay (method B) (converted)
T1 construct: expressed in transfected cells; host or cells: CHO K1 cells carrying pSwitch, transfected with pGeneH3, mifepristone-induced; clone 3H3; membranes
T1 sequence (Q9Y5N1 whole entry): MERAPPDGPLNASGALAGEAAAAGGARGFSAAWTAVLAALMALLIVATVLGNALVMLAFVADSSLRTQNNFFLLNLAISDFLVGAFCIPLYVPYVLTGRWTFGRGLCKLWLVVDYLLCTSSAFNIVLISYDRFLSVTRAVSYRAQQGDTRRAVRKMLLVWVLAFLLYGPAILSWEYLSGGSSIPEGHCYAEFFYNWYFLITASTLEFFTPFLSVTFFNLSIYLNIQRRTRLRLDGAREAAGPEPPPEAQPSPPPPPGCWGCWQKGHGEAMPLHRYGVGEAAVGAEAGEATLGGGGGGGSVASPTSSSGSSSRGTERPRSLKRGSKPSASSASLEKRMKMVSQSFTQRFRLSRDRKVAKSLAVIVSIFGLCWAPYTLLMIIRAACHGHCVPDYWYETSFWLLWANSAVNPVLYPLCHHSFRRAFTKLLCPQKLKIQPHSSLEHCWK
Excerpt: (§1) A membrane preparation containing histamine H3 receptors may be prepared in accordance with the following procedures:
(§2) DNA encoding the human histamine H3 gene (Huvar, A. et al. (1999) Mol. Pharmacol. 55(6), 1101-1107) was cloned into a holding vector, pCDNA3.1 TOPO (InVitrogen) and its cDNA was isolated from this vector by restriction digestion of plasmid DNA with the enzymes BamH1 and Not-1 and ligated into the inducible expression vector pGene (InVitrogen) digested with the same enzymes. The GeneSwitch™ system (a system where in transgene expression is switched off in the absence of an inducer and switched on in the presence of an inducer) was performed as described in U.S. Pat. Nos.: 5,364,791; 5,874,534; and 5,935,934. Ligated DNA was transformed into competent DH5α E. coli host bacterial cells and plated onto Luria Broth (LB) agar containing Zeocin™ (an antibiotic which allows the selection of cells expressing the sh ble gene which is present on pGene and pSwitch) at 50 μg ml^−1. Colonies containing the re-ligated plasmid were identified by restriction analysis. DNA for transfection into mammalian cells was prepared from 250 ml cultures of the host bacterium containing the pGeneH3 plasmid and isolated using a DNA preparation kit (Qiagen Midi-Prep) as per manufacturers guidelines (Qiagen). CHO K1 cells previously transfected with the pSwitch regulatory plasmid (InVitrogen) were seeded at 2×10e6 cells per T75 flask in Complete Medium, containing Hams F12 (GIBCOBRL, Life Technologies) medium supplemented with 10% v/v dialysed foetal bovine serum, L-glutamine, and hygromycin (100 μg ml^−1), 24 hours prior to use. Plasmid DNA was transfected into the cells using Lipofectamine plus according to the manufacturers guidelines (InVitrogen). 48 hours post transfection cells were placed into complete medium supplemented with 500 μg ml^−1 Zeocin™.
10-14 days post selection 10 nM Mifepristone (InVitrogen), was added to the culture medium to induce the expression of the receptor. 18 hours post induction cells were detached from the flask using ethylenediamine tetra-acetic acid (EDTA; 1:5000; InVitrogen), following several washes with phosphate buffered saline pH 7.4 and resuspended in Sorting Medium containing Minimum Essential Medium (MEM), without phenol red, and supplemented with Earles salts and 3% Foetal Clone II (Hyclone). Approximately 1×10e7 cells were examined for receptor expression by staining with a rabbit polyclonal antibody, 4a, raised against the N-terminal domain of the histamine H3 receptor, incubated on ice for 60 minutes, followed by two washes in sorting medium. Receptor bound antibody was detected by incubation of the cells for 60 minutes on ice with a goat anti rabbit antibody, conjugated with Alexa 488 fluorescence marker (Molecular Probes). Following two further washes with Sorting Medium, cells were filtered through a 50 μm Filcon™ (BD Biosciences) and then analysed on a FACS Vantage SE Flow Cytometer fitted with an Automatic Cell Deposition Unit. Control cells were non-induced cells treated in a similar manner. Positively stained cells were sorted as single cells into 96-well plates, containing Complete Medium containing 500 μg ml^−1 Zeocin™ and allowed to expand before reanalysis for receptor expression via antibody and ligand binding studies. One clone, 3H3, was selected for membrane preparation.
All steps of the protocol are carried out at 4° C. and with pre-cooled reagents. The cell pellet is resuspended in 10 volumes of homogenisation buffer (50 mM N-2-hydroxyethylpiperazine-N′-2-ethanesulfonic acid (HEPES), 1 mM ethylenediamine tetra-acetic acid (EDTA), pH 7.4 with KOH, supplemented with 10e-6M leupeptin (acetyl-leucyl-leucyl-arginal; Sigma L2884), 25 μg/ml bacitracin (Sigma B0125), 1 mM phenylmethylsulfonyl fluoride (PMSF) and 2×10e-6M pepstain A (Sigma)). The cells are then homogenised by 2×15 second bursts in a 1 liter glass Waring blender, followed by centrifugation at 500 g for 20 minutes. […]

human H1 receptor = target: T2, human H1 receptor (Homo sapiens, UniProt P35367); assay: Histamine H1 functional antagonist assay (FLIPR, Chinese hamster ovary cells); type: cell-based; details: H1 cell line, FLIPR fluorescence, histamine at EC80; Cheng-Prusoff; averages of a number of experiments; read-out: functional pKi (fpKi), histamine H1 functional antagonist assay (converted)
T2 construct: expressed in transfected cells
T2 sequence (P35367 whole entry): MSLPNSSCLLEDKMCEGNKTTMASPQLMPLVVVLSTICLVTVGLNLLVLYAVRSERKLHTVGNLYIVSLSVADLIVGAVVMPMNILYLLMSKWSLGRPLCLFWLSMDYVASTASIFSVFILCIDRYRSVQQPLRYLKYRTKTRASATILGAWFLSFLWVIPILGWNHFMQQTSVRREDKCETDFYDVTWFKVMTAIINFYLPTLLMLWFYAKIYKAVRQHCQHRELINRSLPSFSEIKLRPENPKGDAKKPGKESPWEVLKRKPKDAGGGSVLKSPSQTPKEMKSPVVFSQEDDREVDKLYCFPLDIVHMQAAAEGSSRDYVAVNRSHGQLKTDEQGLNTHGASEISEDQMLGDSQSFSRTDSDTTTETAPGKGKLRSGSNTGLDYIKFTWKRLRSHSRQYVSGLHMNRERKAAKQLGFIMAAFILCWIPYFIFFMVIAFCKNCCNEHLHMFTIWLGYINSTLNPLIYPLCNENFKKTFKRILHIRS
Procedure: (iii) Generation of Histamine H1 Cell Line
The human H1 receptor was cloned using known procedures described in the literature [Biochem. Biophys. Res. Commun. 1994, 201(2), 894]. Chinese hamster ovary cells stably expressing the human Hi receptor were generated according to known procedures described in the literature [Br. J. Pharmacol. 1996, 117(6), 1071].
(II) Histamine H1 Functional Antagonist Assay
The histamine H1 cell line was seeded into non-coated black-walled clear bottom 384-well tissue culture plates in alpha minimum essential medium (Gibco/Invitrogen, cat no. 22561-021), supplemented with 10% dialysed foetal calf serum (Gibco/Invitrogen cat no. 12480-021) and 2 mM L-glutamine (Gibco/Invitrogen cat no 25030-024) and maintained overnight at 5% CO2, 37° C.
Excess medium was removed from each well to leave 10 μl. 30 μl loading dye (250 μM Brilliant Black, 2 μM Fluo-4 diluted in Tyrodes buffer+probenecid (145 mM NaCl, 2.5 mM KCl, 10 mM HEPES, 10 mM D-glucose, 1.2 mM MgCl2, 1.5 mM CaCl2, 2.5 mM probenecid, pH adjusted to 7.40 with NaOH 1.0 M)) was added to each well and the plates were incubated for 60 minutes at 5% CO2, 37° C.
10 μl of test compound, diluted to the required concentration in Tyrodes buffer+probenecid (or 10 μl Tyrodes buffer+probenecid as a control) was added to each well and the plate incubated for 30 min at 37° C., 5% CO2. The plates were then placed into a FLIPR™ (Molecular Devices, UK) to monitor cell fluorescence (λex=488 nm, λEM=540 nm) in the manner described in Sullivan et al. (In: Lambert DG (ed.), Calcium Signaling Protocols, New Jersey: Humana Press, 1999, 125-136) before and after the addition of 10 μl histamine at a concentration that results in the final assay concentration of histamine being EC80.
Functional antagonism is indicated by a suppression of histamine induced increase in fluorescence, as measured by the FLIPR™ system (Molecular Devices). By means of concentration effect curves, functional affinities are determined using standard pharmacological mathematical analysis.

histamine H3 receptor [2] = target: T1, histamine H3 receptor; assay: Histamine H3 functional antagonist assay (method A), [35S]-GTPγS SPA on membranes; type: biochemical; details: membrane from cultured H3 cells, histamine at EC80, averages of a number of experiments, read-out: functional pKi (fpKi), histamine H3 functional antagonist assay (method A) (converted)
Excerpt: as §1, §2
10-14 days post selection 10 nM Mifepristone (InVitrogen), was added to the culture medium to induce the expression of the receptor. 18 hours post induction cells were detached from the flask using ethylenediamine tetra-acetic acid (EDTA; 1:5000; InVitrogen), following several washes with phosphate buffered saline pH 7.4 and resuspended in Sorting Medium containing Minimum Essential Medium (MEM), without phenol red, and supplemented with Earles salts and 3% Foetal Clone II (Hyclone). […] Receptor bound antibody was detected by incubation of the cells for 60 minutes on ice with a goat anti rabbit antibody, conjugated with Alexa 488 fluorescence marker (Molecular Probes). Following two further washes with Sorting Medium, cells were filtered through a 50 μm Filcon™ (BD Biosciences) and then analysed on a FACS Vantage SE Flow Cytometer fitted with an Automatic Cell Deposition Unit. […]

Compound | Ki (histamine H3 receptor [1]) [nM] | Ki (human H1 receptor) [nM] | Ki (histamine H3 receptor [2]) [nM]
Cc1noc(-c2ccc(N3CCC(CC4CCN(C(C)C)CC4)CC3)cn2)n1 [Example E15, 5-(4-{[1-(1-Methylethyl)-4-piperidinyl]methyl}-1-piperidinyl)-2-(3-methyl-1,2,4-oxadiazol-5-yl)pyridine] | ≤ 1 |  | 
CNC(=O)c1ccc(N2CCC(CC3CCN(C4CCC4)CC3)CC2)cn1 [Example E11, 5-{4-[(1-Cyclobutyl-4-piperidinyl)methyl]-1-piperidinyl}-N-methyl-2-pyridinecarboxamide] | ≤ 1 | > 1000 | 
CC(=O)c1ccc(N2CCC(CC3CCN(C4CCC4)CC3)CC2)cn1 [Example E24, 1-(5-{4-[(1-Cyclobutyl-4-piperidinyl)methyl]-1-piperidinyl}-2-pyridinyl)ethanone] | ≤ 0.316 |  | 
CCNC(=O)c1cnc(N2CCC(CC3CCN(C4CCC4)CC3)CC2)cn1 [Example E9, 5-{4-[(1-cyclobutyl-4-piperidinyl)methyl]-1-piperidinyl}-N-ethyl-2-pyrazinecarboxamide] | ≤ 1 | > 1000 | 
Cc1noc(-c2ccc(N3CCC(CC4CCN(C(C)C)CC4)CC3)cc2)n1 [Example E13, 1-(1-Methylethyl)-4-({1-[4-(3-methyl-1,2,4-oxadiazol-5-yl)phenyl]-4-piperidinyl}methyl)piperidine] |  |  | ≤ 0.316
CC(C)NC(=O)c1cnc(N2CCC(CC3CCN(C(C)C)CC3)CC2)cn1 [Example E7] |  |  | ≤ 10
CC(=O)c1ccc(N2CCC(CC3CCN(C4CCC4)CC3)CC2)nc1 [Example E29] | ≤ 1 |  | 
Cc1noc(-c2ccc(N3CCC(CC4CCN(C(C)C)CC4)CC3)cc2F)n1 [Example E16, 1-[3-fluoro-4-(3-methyl-1,2,4-oxadiazol-5-yl)phenyl]-4-{[1-(1-methylethyl)-4-piperidinyl]methyl}piperidine] | ≤ 0.316 |  | 
CC(=O)c1ccc(N2CCC(CC3CCN(C4CCC4)CC3)CC2)cc1 [Example E25, 1-(4-{4-[(1-Cyclobutyl-4-piperidinyl)methyl]-1-piperidinyl}phenyl)ethanone] | ≤ 1 |  | 
CC(C)N1CCC(CC2CCN(c3cnc(C(F)(F)F)nc3)CC2)CC1 [Example E36, 5-(4-{[1-(1-Methylethyl)-4-piperidinyl]methyl}-1-piperidinyl)-2-(trifluoromethyl)pyrimidine] | ≤ 10 | > 1000 | 
FC(F)(F)c1ccc(N2CCC(CC3CCN(C4CCC4)CC3)CC2)nn1 [Example E34] | ≤ 1 |  | 
Cc1noc(-c2ccc(N3CCC(CC4CCN(C(C)C)CC4)CC3)c(F)c2)n1 [Example E14, 1-[2-Fluoro-4-(3-methyl-1,2,4-oxadiazol-5-yl)phenyl]-4-{[1-(1-methylethyl)-4-piperidinyl]methyl}piperidine] | ≤ 1 |  | 
O=C(c1ccc(N2CCC(CC3CCN(C4CCC4)CC3)CC2)cc1)C(F)(F)F [Example E31] | ≤ 1 |  | 
CC(C)N1CCC(CC2CCN(c3ccc(C#N)nc3)CC2)CC1 [Example E21, 5-(4-{[1-(1-Methylethyl)-4-piperidinyl]methyl}-1-piperidinyl)-2-pyridinecarbonitrile] | ≤ 1 |  | 
Cc1noc(-c2ccc(N3CCC(CC4CCN(C5CCC5)CC4)CC3)cn2)n1 [Example E17, 5-{4-[(1-cyclobutyl-4-piperidinyl)methyl]-1-piperidinyl}-2-(3-methyl-1,2,4-oxadiazol-5-yl)pyridine] | ≤ 1 |  | 
CCN1CCC(CC2CCN(c3ccc(-c4nc(C)no4)cc3)CC2)CC1 [Example E18] | ≤ 0.316 |  | 
CC(=O)c1ccc(N2CCC(CC3CCN(C(C)C)CC3)CC2)cn1 [Example E23, 1-{[5-(4-[1-(1-Methylethyl)-4-piperidinyl]methyl}-1-piperidinyl)-2-pyridinyl]ethanone] | ≤ 1 |  | 
CNC(=O)c1ccc(N2CCC(CC3CCN(C(C)C)CC3)CC2)cn1 [Example E12, N-Methyl-5-(4-{[1-(1-methylethyl)-4-piperidinyl]methyl}-1-piperidinyl)-2-pyridinecarboxamide] | ≤ 1 |  | ≤ 1
CC(=O)c1ccc(N2CCC(CC3CCN(C(C)C)CC3)CC2)cc1 [Example E26] | ≤ 1 |  | 
CC(C)NC(=O)c1cnc(N2CCC(CC3CCN(C4CCC4)CC3)CC2)cn1 [Example E6, 5-{4-[(1-Cyclobutyl-4-piperidinyl)methyl]-1-piperidinyl}-N-(1-methylethyl)-2-pyrazinecarboxamide] |  | > 1000 | ≤ 1
CNC(=O)c1cnc(N2CCC(CC3CCN(C4CCC4)CC3)CC2)cn1 [Example E8] | ≤ 1 |  | 
N#Cc1ccc(N2CCC(CC3CCN(C4CCC4)CC3)CC2)cn1 [Example E22, 5-{4-[(1-Cyclobutyl-4-piperidinyl)methyl]-1-piperidinyl}-2-pyridinecarbonitrile] | ≤ 0.316 |  | 
CCN1CCC(CC2CCN(c3ccc(C(C)=O)cc3)CC2)CC1 [Example E27] | ≤ 1 |  | 
